Measurements published in publication PMC9229949 (Pharmaceutics, 2022).

Tests used:
human TrxR (hTrxR) = biological target: T1, human TrxR (hTrxR) (Homo sapiens, UniProt Q16881); test: Inhibition of enzymatic activity of recombinant human TrxR; type: biochemical; conditions: recombinant enzyme, 15 min preincubation; mean of one experiment; read-out: IC50 for TrxRs, Human (Sec)
T1 construct: made in house
T1 sequence (Q16881 151-649 limits assumed): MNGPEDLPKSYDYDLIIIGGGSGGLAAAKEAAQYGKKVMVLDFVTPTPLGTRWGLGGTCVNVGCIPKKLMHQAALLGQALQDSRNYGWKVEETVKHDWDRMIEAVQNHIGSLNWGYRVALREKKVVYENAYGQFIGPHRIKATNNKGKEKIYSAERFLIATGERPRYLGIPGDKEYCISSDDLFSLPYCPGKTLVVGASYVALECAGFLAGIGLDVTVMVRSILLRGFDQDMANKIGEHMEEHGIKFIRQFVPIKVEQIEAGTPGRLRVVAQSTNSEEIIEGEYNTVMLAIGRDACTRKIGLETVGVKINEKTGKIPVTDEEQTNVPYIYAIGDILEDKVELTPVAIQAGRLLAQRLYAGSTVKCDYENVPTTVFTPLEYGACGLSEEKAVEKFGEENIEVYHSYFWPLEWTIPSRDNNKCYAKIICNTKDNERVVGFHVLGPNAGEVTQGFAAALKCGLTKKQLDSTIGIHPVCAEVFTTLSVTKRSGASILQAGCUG
Experimental: (§1) The codon-optimized sequence for PfTrxR [27, 28] was synthesized and subcloned into pET-15b (Genscript) and expressed and purified as for human glutathione reductase (hGR). Recombinant Schistosoma mansoni (S. mansoni) thioredoxin glutathione reductase (SmTGR), human TrxR (hTrxR), and hGR proteins were expressed and purified as described. TrxR and TGR enzyme inhibition assays were performed in triplicate at 25 °C in 0.1 M potassium phosphate (pH 7.4), 10 mM EDTA, 100 µM NADPH and 0.01% Tween-20. SmTGR (4 nM), hTrxR (4 nM), and PfTrxR (50 nM) were preincubated with the compounds for 15 min. The reaction was started with addition of an equal volume of 5,5′-dithiobis(2-nitrobenzoic acid) (6 mM) and NADPH (100 µM). The increase in A412 during the first 3 min was recorded. […]. The reactions were performed in triplicate. The IC50s were calculated in Prism version 5.01.

[1] = biological target: T2, S. mansoni thioredoxin-glutathione reductase (SmTGR) (Schistosoma mansoni, UniProt Q962Y6); test: Inhibition of enzymatic activity of recombinant S. mansoni thioredoxin glutathione reductase; type: biochemical; conditions: 15 min preincubation, mean of one experiment, read-out: IC50 for TrxRs, S. mansoni (Sec)
T2 construct: made in house
T2 sequence (Q962Y6 1-598): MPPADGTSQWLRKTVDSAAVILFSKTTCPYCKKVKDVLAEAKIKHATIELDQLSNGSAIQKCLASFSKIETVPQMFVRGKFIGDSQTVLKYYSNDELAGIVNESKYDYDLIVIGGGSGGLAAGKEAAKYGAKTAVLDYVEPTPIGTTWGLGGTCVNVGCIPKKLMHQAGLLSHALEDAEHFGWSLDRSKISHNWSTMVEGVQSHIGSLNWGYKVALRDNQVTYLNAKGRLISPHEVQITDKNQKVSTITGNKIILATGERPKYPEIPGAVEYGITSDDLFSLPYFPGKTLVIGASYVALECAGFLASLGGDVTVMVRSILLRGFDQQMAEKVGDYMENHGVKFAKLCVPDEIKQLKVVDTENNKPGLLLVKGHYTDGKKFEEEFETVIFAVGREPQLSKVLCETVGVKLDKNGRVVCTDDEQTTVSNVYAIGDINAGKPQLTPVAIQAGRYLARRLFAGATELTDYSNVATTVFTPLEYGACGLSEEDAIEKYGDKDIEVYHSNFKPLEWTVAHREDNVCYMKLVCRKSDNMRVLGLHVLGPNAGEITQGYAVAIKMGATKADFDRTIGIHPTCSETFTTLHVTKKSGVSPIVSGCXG
Experimental: as §1

PfTrxR = biological target: T3, PfTrxR (Plasmodium falciparum, UniProt Q25861); test: Inhibition of enzymatic activity of recombinant P. falciparum TrxR; type: biochemical; conditions: recombinant enzyme, 15 min preincubation; mean of one experiment; read-out: IC50 for TrxRs, P. falciparum (Cys)
T3 construct: made in house
T3 sequence (Q25861 1-541): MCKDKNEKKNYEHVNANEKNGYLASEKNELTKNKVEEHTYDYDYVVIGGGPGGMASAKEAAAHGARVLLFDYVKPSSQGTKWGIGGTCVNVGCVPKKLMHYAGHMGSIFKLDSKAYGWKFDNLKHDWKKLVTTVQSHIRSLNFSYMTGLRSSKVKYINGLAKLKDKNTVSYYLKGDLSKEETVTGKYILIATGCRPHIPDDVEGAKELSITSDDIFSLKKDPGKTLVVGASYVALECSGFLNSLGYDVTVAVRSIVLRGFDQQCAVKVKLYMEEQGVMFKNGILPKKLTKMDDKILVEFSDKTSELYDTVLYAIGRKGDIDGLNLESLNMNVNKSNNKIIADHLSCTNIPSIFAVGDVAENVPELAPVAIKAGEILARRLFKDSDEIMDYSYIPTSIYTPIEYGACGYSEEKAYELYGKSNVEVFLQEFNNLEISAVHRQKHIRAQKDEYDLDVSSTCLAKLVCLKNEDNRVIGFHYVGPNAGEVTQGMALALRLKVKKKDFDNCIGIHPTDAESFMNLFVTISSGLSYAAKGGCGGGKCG
Experimental: as §1

[2] = biological target: T4, human glutathione reductase (hGR) (Homo sapiens, UniProt P00390); test: Inhibition of enzymatic activity of recombinant human glutathione reductase; type: biochemical; conditions: recombinant enzyme, 15 min preincubation; mean of one experiment; read-out: IC50, Human GR
T4 construct: made in house
T4 sequence (P00390 44-522): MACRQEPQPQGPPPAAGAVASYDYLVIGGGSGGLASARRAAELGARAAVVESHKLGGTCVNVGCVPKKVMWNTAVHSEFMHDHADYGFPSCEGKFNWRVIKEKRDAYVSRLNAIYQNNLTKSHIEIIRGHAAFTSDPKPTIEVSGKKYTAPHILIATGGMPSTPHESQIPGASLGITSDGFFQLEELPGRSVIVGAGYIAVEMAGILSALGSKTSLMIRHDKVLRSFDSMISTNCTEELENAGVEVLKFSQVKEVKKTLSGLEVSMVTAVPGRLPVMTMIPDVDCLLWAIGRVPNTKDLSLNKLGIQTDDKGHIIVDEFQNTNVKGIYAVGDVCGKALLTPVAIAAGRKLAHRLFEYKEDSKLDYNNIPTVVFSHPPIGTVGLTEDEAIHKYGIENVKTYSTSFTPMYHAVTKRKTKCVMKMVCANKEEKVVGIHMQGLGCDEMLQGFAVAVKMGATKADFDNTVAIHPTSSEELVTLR
Experimental: as §1

[3] = test system: P. falciparum 3D7 (CQ-susceptible) asexual blood stages; design: method as in PMID 29465117; conditions: in vitro antiplasmodial activity; read-out: P. falciparum 3D7 (Cell Based Activity), IC50; cited from earlier work

`CC(=O)OC[C@H]1O[C@@H]([S-])[C@H](OC(C)=O)[C@@H](OC(C)=O)[C@@H]1OC(C)=O.CCP(CC)CC.[Au+]` [Auranofin, auranofin] showed an IC50 (human TrxR (hTrxR)) of 20 nM, an IC50 [1] of 7 nM and an IC50 (PfTrxR) of 62 nM. For the same molecule, the IC50 [2] was 40000 nM and the IC50 [3] was 60 nM.
